Measurements as given in PMC4822341 (Cell Discovery, 2015).

Columns and labels:
GR = biological target: T1, GR (Homo sapiens, UniProt P04150); assay: MMTV-Luc induction reporter assay in AD293 cells; type: cell-based; conditions: 16 h
T1 construct: expressed in transfected cells; host or cells: AD293
T1 sequence (P04150 1-777): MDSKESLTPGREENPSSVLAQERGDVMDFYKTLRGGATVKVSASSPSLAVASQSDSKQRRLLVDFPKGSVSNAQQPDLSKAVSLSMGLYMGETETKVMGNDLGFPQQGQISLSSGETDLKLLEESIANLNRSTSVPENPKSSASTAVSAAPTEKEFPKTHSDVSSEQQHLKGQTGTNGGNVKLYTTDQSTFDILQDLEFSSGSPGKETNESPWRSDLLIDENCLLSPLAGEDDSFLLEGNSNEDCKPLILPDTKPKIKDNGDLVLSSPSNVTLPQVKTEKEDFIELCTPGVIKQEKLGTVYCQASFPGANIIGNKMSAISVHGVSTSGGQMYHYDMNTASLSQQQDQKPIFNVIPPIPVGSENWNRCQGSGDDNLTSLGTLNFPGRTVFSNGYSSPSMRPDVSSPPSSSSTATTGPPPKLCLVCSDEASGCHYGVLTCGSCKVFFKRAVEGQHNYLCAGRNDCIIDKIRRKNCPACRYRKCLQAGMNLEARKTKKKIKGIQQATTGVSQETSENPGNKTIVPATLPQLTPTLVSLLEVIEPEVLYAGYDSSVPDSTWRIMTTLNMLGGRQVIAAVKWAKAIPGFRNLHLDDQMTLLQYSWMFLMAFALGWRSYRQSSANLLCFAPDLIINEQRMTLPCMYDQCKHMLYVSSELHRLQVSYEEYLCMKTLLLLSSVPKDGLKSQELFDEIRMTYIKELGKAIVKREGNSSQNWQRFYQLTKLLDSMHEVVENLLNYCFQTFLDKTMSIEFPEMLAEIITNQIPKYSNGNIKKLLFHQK
Method: (§1) Similar to previous reports, for induction 100 ng pHHLuc (MMTV-Luc) plasmid, 0.1 ng pRShGR together with 5 ng phRGtkRenilla were transfected by X-tremeGENE 9 (Roche) into AD293 cells per well in 24-well plate. For transrepression, 10 ng AP-1-Luc or 10ng pNF-κB-luc, 100 ng pRShGR and 5 ng phRGtkRenilla were transfected into AD293 cells per well. We used the same transfection protocol for the MR and PR assays, except of the use of 0.1 ng MR or PR plasmid to substitute GR. One day after transfection, for induction, cells were directly treated by steroids for 16 h; for repression, cells were treated with either PMA at 0.6 ng ml^–1 (for AP-1 reporter) or TNFα at 2 ng ml^–1 (for NF-κB reporter), together with various steroids. Cells were collected by addition of 1× Passive Lysis Buffer (Promega, Madison, WI, USA), and luciferase activity was assayed by the Dual-Glo Luciferase system (Promega). Data were plotted as firefly luciferase activity normalized to Renilla luciferase activity in Relative Luciferase Units.

PR = biological target: T2, PR (Homo sapiens, UniProt P06401); assay: PR reporter assay (off-target activity); type: cell-based; conditions: steroid 1 μM; percent of 1 μM progesterone
T2 construct: expressed in transfected cells; host or cells: AD293
T2 sequence (P06401 1-933): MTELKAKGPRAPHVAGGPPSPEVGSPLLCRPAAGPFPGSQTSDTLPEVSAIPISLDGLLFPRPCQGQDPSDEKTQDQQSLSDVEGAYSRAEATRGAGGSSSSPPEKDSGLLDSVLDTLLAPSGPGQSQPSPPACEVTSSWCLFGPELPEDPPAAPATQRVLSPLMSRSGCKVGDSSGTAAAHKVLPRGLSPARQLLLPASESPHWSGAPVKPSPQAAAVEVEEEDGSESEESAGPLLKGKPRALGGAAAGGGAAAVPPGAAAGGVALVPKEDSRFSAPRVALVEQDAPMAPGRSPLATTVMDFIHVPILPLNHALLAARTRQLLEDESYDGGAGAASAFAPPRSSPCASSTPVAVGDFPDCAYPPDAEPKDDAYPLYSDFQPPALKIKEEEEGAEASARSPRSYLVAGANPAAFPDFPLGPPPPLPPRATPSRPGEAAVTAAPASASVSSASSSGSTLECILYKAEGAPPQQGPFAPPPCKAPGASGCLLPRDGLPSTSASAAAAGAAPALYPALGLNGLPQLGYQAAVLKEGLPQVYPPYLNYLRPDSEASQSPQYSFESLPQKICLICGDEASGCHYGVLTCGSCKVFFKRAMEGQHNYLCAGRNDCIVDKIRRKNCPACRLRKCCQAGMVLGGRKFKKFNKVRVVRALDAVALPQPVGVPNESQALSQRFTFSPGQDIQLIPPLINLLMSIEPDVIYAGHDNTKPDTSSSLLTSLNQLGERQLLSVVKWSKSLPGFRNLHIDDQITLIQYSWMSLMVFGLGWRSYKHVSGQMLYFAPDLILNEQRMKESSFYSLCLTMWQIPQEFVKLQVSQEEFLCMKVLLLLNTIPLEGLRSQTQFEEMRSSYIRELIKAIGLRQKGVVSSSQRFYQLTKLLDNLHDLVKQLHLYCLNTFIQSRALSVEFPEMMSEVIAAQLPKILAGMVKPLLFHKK
Method: as §1

RAW264.7 cells = assay: Gene expression (microarray and quantitative PCR) in LPS-stimulated RAW264.7 cells; type: cell-based, mouse; conditions: RAW264.7, LPS, steroid 100 nM
Method: Mouse macrophage RAW264.7 cells were grown in 6-well plates to reach 80% confluence. The cells were pretreated with different steroids at 100 nM 1 h before overnight induction of inflammation by 1 μg ml^–1 LPS. Total RNA was isolated using a Qiagen mini RNA extraction kit (Valencia, CA, USA). Complementary DNA was synthesized from total RNA with an Invitrogen Superscript cDNA synthesis kit (Carlsbad, CA, USA). Target genes were quantified with a Power SYBR Green Real-Time PCR kit (Carlsbad, CA, USA) (ABI) in a StepOnePlus real-time PCR instrument (Applied Biosystems, Carlsbad, CA, USA). In every case, GAPDH (glyceraldehyde-3-phosphate dehydrogenase) was used as an internal control and data were analyzed by the ΔΔCt method. The specificity of target primers was tested both in a dissociation (melting) curve (Supplementary Figure S4) and against a water control. Primer sequence information is included in Supplementary Figure S4.
RAW264.7 cells were treated with designated steroids at 100 nM 1 h before overnight LPS stimulation of inflammation. Each treatment was duplicated. The following day, RNA samples were isolated using a Qiagen mini RNA extraction kit and applied to the Agilent Whole Mouse Genome 8x60K gene expression platform. Data were analyzed by the limma package in R program. Heat maps were generated by the HeatMap 2 package. Pathway analysis was done via DAVID Bioinformatics Resources 6.7 (NIAID) and Venn diagrams were generated by BioVenn.

## CON(C)C(=O)C1(OC(=O)c2ccco2)C(C)CC2C3CC(F)C4=Cc5c(cnn5-c5ccccc5)CC4(C)C3(F)C(O)CC21C (stereo not shown) [VSGC12]
GR
  EC50: 0.51 nM
PR
  PR activity: higher activity than VSG22, but a lower activity than MF, FF and FP
RAW264.7 cells
  inhibition activity of pro-inflammatory cytokines (microarray, normalized to DEX): much stronger inhibition activity than DEX
  repression activity on pro-inflammatory cytokines by quantitative PCR: much higher repression activity on IL-1β, IL-6 and IL-33 than FF and DEX
